Series [1] concerns the target T1, CDK2/cyclinE (Homo sapiens, UniProt P24941).
T1 construct: C-terminal 6His-tagged, recombinant full-length CDK2 (MW=34 kDa); 6His (C); made in house; host or cells: Sf21 cells (baculovirus)
Put plainly: CDK activity assay with p33 ATP, CDK2/cyclinE. It counts as biochemical. The note with it: 1 μM ATP. How it is done: CDK2/cyclinE (Accession Number for CDK2; EMBL M68520, for cyclinE1; GenBank NM_001238):
C-terminal 6His-tagged, recombinant full-length CDK2 (MW=34 kDa) in complex with N-terminal GST-tagged, recombinant full-length cyclinE1 (MW=74 kDa) were expressed with baculovirus system in Sf21 cells. Recombinant proteins were purified using Ni2+/NTA agarose and the purity of recombinant protein complex was measured to be around 76% by SDS-PAGE and Coomassie blue staining. Specific Activity of recombinant CDK2/cyclinE was 1336 U/mg, where one unit of CDK2/cylinE1 activity is defined as 1 nmol phosphate incorporated into 0.1 mg/ml histone H1 per minute at 30° C. with a final ATP concentration of 100 μM. Enzyme was stored with concentration of 0.1 mg/ml in 50 mM Tris/HCl pH 7.5, 150 mM NaCl, 0.03% Brij-35, 0.1 mM EGTA, 0.2 mM PMSF, 1 mM benzamidine, 0.1% 2-mercaptoethanol, 270 mM sucrose.

The subject of series [2] is HDAC. Put plainly: HDAC fluorimetric assay kit (AK-500, Biomol), HeLa nuclear extract. It counts as biochemical. As to the method: HDAC inhibitors were screened using an HDAC fluorimetric assay kit (AK-500, Biomol, Plymouth Meeting, Pa.). […] Each assay was setup as follows: Defrosted all kit components and kept on ice until use. Diluted HeLa nuclear extract 1:29 in Assay Buffer (50 mM Tris/Cl, pH 8.0, 137 mM NaCl, 2.7 mM KCl, 1 mM MgCl2). Prepared dilutions of Trichostatin A (TSA, positive control) and tested compounds in assay buffer (5× of final concentration). Diluted Fluor de LysTM Substrate in assay buffer to 100 uM (50 fold=2× final). Diluted Fluor de LysTM developer concentrate 20-fold (e.g. 50 μl plus 950 μl Assay Buffer) in cold assay buffer. Second, diluted the 0.2 mM Trichostatin A 100-fold in the 1× Developer (e.g. 10 μl in 1 ml; final Trichostatin A concentration in the 1× Developer=2 μM; final concentration after addition to HDAC/Substrate reaction=1 μM). Added Assay buffer, diluted trichostatin A or test inhibitor to appropriate wells of the microtiter plate. Added diluted HeLa extract or other HDAC sample to all wells except for negative controls. Allowed diluted Fluor de LysTM Substrate and the samples in the microtiter plate to equilibrate to assay temperature (e.g. 25 or 37° C. Initiated HDAC reactions by adding diluted substrate (25 μl) to each well and mixing thoroughly. Allowed HDAC reactions to proceed for 1 hour and then stopped them by addition of Fluor de LysTM Developer (50 μl). Incubated plate at room temperature (25° C.) for 10-15 min. Read samples in a microtiter-plate reading fluorimeter capable of excitation at a wavelength in the range 350-380 nm and detection of emitted light in the range 440-460 nm.

Consider `CC(C)(C)c1cnc(CSc2cnc(NC(=O)C3CCN(CCCC(=O)NO)CC3)s2)o1` [Compound 1, N-(5-((5-tert-butyloxazol-2-yl)methylthio)thiazol-2-yl)-1-(4-(hydroxyamino)-4-oxobutyl)piperidine-4-carboxamide], for which the melting point (commonly the temperature of the solid-liquid transition) was 176 to 180 °C. The IC50 (in general, the concentration that inhibits the measured activity by half) in series [1] was less than 100 nM. In series [2], this compound registered an IC50 greater than 10000 nM.
Taken in the same sequence, the figures for `CC(C)(C)c1cnc(CSc2cnc(NC(=O)C3CCN(CCCCC(=O)NO)CC3)s2)o1` [Compound 2, N-(5-((5-tert-butyloxazol-2-yl)methylthio)thiazol-2-yl)-1-(5-(hydroxyamino)-5-oxopentyl)piperidine-4-carboxamide] were 93 to 97 °C, less than 100 nM and 1000 to 10000 nM.
Taken in the same sequence, the figures for `CC(C)(C)c1cnc(CSc2cnc(NC(=O)C3CCN(CCCCCC(=O)NO)CC3)s2)o1` [Compound 3, N-(5-((5-tert-butyloxazol-2-yl)methylthio)thiazol-2-yl)-1-(6-(hydroxyamino)-6-oxohexyl)piperidine-4-carboxamide] were 127 to 130 °C, less than 100 nM and 1000 to 10000 nM.
For `CC(C)(C)c1cnc(CSc2cnc(NC(=O)C3CCN(CCCCCCC(=O)NO)CC3)s2)o1` [Compound 4, N-(5-((5-tert-butyloxazol-2-yl)methylthio)thiazol-2-yl)-1-(7-(hydroxyamino)-7-oxoheptyl)piperidine-4-carboxamide] the same measures were 113 to 115 °C, less than 100 nM and 100 to 1000 nM.
As to `CC(C)(C)c1cnc(CSc2cnc(NC(=O)Cc3ccc(OCCCCC(=O)NO)cc3)s2)o1` [Compound 10, 5-(4-(2-(5-((5-tert-butyloxazol-2-yl)methylthio)thiazol-2-ylamino)-2-oxoethyl)phenoxy)-N-hydroxypentanamide], the IC50 in series [1] is less than 100 nM; in series [2], 100 to 1000 nM.
For `CC(C)(C)c1cnc(CSc2cnc(NC(=O)Cc3ccc(OCCCCCC(=O)NO)cc3)s2)o1` [Compound 11] the same measures were less than 100 nM and 100 to 1000 nM.
With `CC(C)(C)c1cnc(CSc2cnc(NC(=O)CCCNCCCCCC(=O)NO)s2)o1` [Compound 16, 6-(4-(5-((5-tert-butyloxazol-2-yl)methylthio)-thiazol-2-ylamino)-4-oxobutylamino)-N-hydroxyhexanamide], the IC50 in series [2] was in the range of 100 to 1000 nM.
As for `CC(C)(C)c1cnc(CSc2cnc(NC(=O)CCCNCCCCCCC(=O)NO)s2)o1` [Compound 17, 7-(4-(5-((5-tert-butyloxazol-2-yl)methylthio)-thiazol-2-ylamino)-4-oxobutylamino)-N-hydroxyheptanamide], the IC50 in series [1] was less than 100 nM; in series [2], 100 to 1000 nM.
On to `CC(C)(C)c1cnc(CSc2cnc(NC(=O)c3ccc(/C=C/C(=O)NO)cc3)s2)o1` [Compound 18, (E)-N-(5-((5-tert-butyloxazol-2-yl)methylthio)thiazol-2-yl)-4-(3-(hydroxylamino)-3-oxoprop-1-enyl)benzamide], for which the figures for the IC50 in series [1] and in series [2] were less than 100 nM and 100 to 1000 nM, respectively.
With `CC(C)(C)c1cnc(CSc2cnc(NC(=O)c3cccc(/C=C/C(=O)NO)c3)s2)o1` [Compound 19, (E)-N-(5-((5-tert-butyloxazol-2-yl)methylthio)-thiazol-2-yl)-3-(3-(hydroxylamino)-3-oxoprop-1-enyl)benzamide], the IC50 in series [1] is less than 100 nM; in series [2], 100 to 1000 nM.
For `CC(C)(C)c1cnc(CSc2cnc(NCC3CCN(c4ncc(C(=O)NO)cn4)CC3)s2)o1` [Compound 21, 2-(4-((5-((5-tert-butyloxazol-2-yl)methylthio)-thiazol-2-ylamino)methyl)piperidin-1-yl)-N-hydroxypyrimidine-5-carboxamide] the same measures were less than 100 nM and less than 100 nM.
The compound `CC(C)(C)c1cnc(CSc2nnc(NC(=O)CCCCCCC(=O)NO)s2)o1` [Compound 22, N^1-(5-((5-tert-butyloxazol-2-yl)methylthio)-1,3,4-thiadiazol-2-yl)-N^8-hydroxyoctanediamide] returned an IC50 in series [1] of 1000 to 10000 nM.
Still for that read-out and setting: as for `CC(C)(C)c1cnc(CSc2cnc(NC(=O)c3ccc(OCCCCC(=O)NO)cc3)s2)o1` [Compound 24, N-(5-((5-tert-butyloxazol-2-yl)methylthio)thiazol-2-yl)-4-(5-(hydroxyamino)-5-oxopentyloxy)benzamide], the figure is less than 100 nM.
In the case of `CC(C)(C)c1cnc(CSc2cnc(NC(=O)c3ccc(OCCCCCC(=O)NO)cc3)s2)o1` [Compound 25, N-(5-((5-tert-butyloxazol-2-yl)methylthio)thiazol-2-yl)-4-(6-(hydroxyamino)-6-oxohexyloxy)benzamide], the IC50 was less than 100 nM in series [1] and 100 to 1000 nM in series [2].
Taken in the same sequence, the figures for `CC(Sc1cnc(NC(=O)Cc2ccc(OCCCC(=O)NO)cc2)s1)c1ncc(C(C)(C)C)o1` (centres unmarked) [Compound 26, 4-(4-(2-(5-(1-(5-Tert-butyloxazol-2-yl)ethylthio)-thiazol-2-ylamino)-2-oxoethyl)phenoxy)-N-hydroxybutanamide] were less than 100 nM and 100 to 1000 nM.
Taken in the same sequence, the figures for `CC(C)(C)c1cnc(CSc2cnc(NC(=O)C(C)(C)c3ccc(OCCCC(=O)NO)cc3)s2)o1` [Compound 27, 4-(4-(1-(5-((5-Tert-butyloxazol-2-yl)methylthio)-thiazol-2-ylamino)-2-methyl-1-oxopropan-2-yl)phenoxy)-N-hydroxybutanamide] were less than 100 nM and 100 to 1000 nM.
As for `CC(C)(C)c1cnc(CSc2cnc(NC(=O)Oc3ccc(OCCCC(=O)NO)cc3)s2)o1` [Compound 28, 4-(4-(hydroxyamino)-4-oxobutoxy)phenyl-5-((5-tert-butyloxazol-2-yl)methylthio)thiazol-2-ylcarbamate], in series [1], the IC50 was less than 100 nM.
For `CC(C)(C)c1cnc(CSc2cnc(NC(=O)Nc3ccc(OCCCC(=O)NO)cc3)s2)o1` [Compound 29, 4-(4-(3-(5-((5-Tert-butyloxazol-2-yl)methylthio)-thiazol-2-yl)ureido)phenoxy)-N-hydroxybutanamide], the IC50 was less than 100 nM in series [1] and 100 to 1000 nM in series [2].
For `CC(C)(C)c1cnc(CSc2nnc(NC(=O)Cc3ccc(OCCCC(=O)NO)cc3)s2)o1` [Compound 30, 4-(4-(2-(5-((5-tert-butyloxazol-2-yl)methylthio)-1,3,4-thiadiazol-2-ylamino)-2-oxoethyl)phenoxy)-N-hydroxybutanamide] the same measures were 1000 to 10000 nM and 100 to 1000 nM.
For `CC(C(=O)Nc1ncc(SCc2ncc(C(C)(C)C)o2)s1)c1ccc(OCCCC(=O)NO)cc1` (centres unmarked) [Compound 31, 4-(4-(1-(5-((5-Tert-butyloxazol-2-yl)methylthio)-thiazol-2-ylamino)-1-oxopropan-2-yl)phenoxy)-N-hydroxybutanamide] the same measures were less than 100 nM and less than 100 nM.
As for `CC(C)(C)c1cnc(CSc2cnc(NS(=O)(=O)c3cccc(/C=C/C(=O)NO)c3)s2)o1` [Compound 32, (E)-3-(3-(N-(5-((5-tert-butyloxazol-2-yl)methylthio)thiazol-2-yl)sulfamoyl)phenyl)-N-hydroxyacrylamide], the IC50 is 1000 to 10000 nM in series [1] and less than 100 nM in series [2].
Consider `CC(C)(C)c1cnc(CSc2cnc(NS(=O)(=O)c3ccc(C(=O)NO)cc3)s2)o1` [Compound 33, 4-(N-(5-((5-tert-butyloxazol-2-yl)methylthio)-thiazol-2-yl)sulfamoyl)-N-hydroxybenzamide], for which the “CDK2/cyclinE IC50” value in series [1] was “No”. This compound returned an IC50 in series [2] of 100 to 1000 nM.
In the case of `CC(C)(C)c1cnc(CSc2cnc(NS(=O)(=O)c3ccc(/C=C/C(=O)NO)cc3)s2)o1` [Compound 34, (E)-3-(4-(N-(5-((5-tert-butyloxazol-2-yl)methylthio)-thiazol-2-yl)sulfamoyl)phenyl)-N-hydroxyacrylamide], the “CDK2/cyclinE IC50” value in series [1] is reported as “No”. In series [2], the IC50 was less than 100 nM.
As to `CC(C)(C)c1cnc(CSc2cnc(NC(=O)c3ccc(OCCCC(=O)NO)cc3)s2)o1` [Compound 39], the figures for the half-maximal inhibitory concentration (IC50) in series [1] and in series [2] were less than 100 nM and 100 to 1000 nM, respectively.
For `CC(C)(C)c1cnc(CSc2cnc(NC(=O)c3ccc(OCCCCCCC(=O)NO)cc3)s2)o1` [Compound 40] the same measures were less than 100 nM and 100 to 1000 nM.

The record behind these values is patent US8563741B2, “CDK inhibitors containing a zinc binding moiety” (Curis, Inc., priority 2007, dated 2013).
